# Laboratory results from patent US7972785B2, “Biomarkers for liver fibrotic injury” (Industrial Technology Research Institute (ITRI), priority 2006, dated 2011).
# System: rat liver transcripts
# Assay: Affymetrix Rat Genome U34A microarray gene expression profiling of liver of DMN-treated rats
# Format: in vivo
# Description: Protocols and reagents for hybridization, washing and staining followed Affymetrix's instructions, which may be retrieved from Affymetrix's company website. Labeled cRNA was hybridized to the Affymetrix GeneChip Test 3 Array to verify the quality prior to hybridization to the Affymetrix Rat Genome U34A Array.
# The microarray images were transformed into text files containing intensity information using GENECHIP® Operating Software (GCOS) developed by ® Affymetrix. The microarray datasets were then analyzed using GENESPRING® 7.2 software (Silicon Genetics, Redwood City, Calif., U.S.A.)
# Over the six week time course of the experiment, the liver tissues of 12 control animals and 12 DMN-treated rats (2 rats for each time point) were selected to perform microarray experiments. Before any statistical analyses were applied to the microarray data, reproducibility was assessed. Genes were selected as present when they were assigned a present call according to the perfect match (PM)/mismatch (MM) algorithm of Affymetrix in all gene chips (28). Of the 8799 probe sets analyzed, overall expression patterns for 2385 transcripts on the chips were reported to be present (P<0.05). […] Scattered graphs of expression levels of the 2385 transcripts represented on the microarray were compared with each other. The relationship between the experimental chips in the microarray analysis was analyzed by linear regression. Overall, there was no statistical difference, with 3.2% of transcripts deviating more than 2-fold. To investigate the time course variability, the reliable signals of these 2385 probe sets between the first and sixth week of controls, were calculated. Again, there was no statistical difference, with 4.6% of transcripts deviating more than 2-fold. In contrast, a significant scatter was found between controls and DMN-treated groups, with 28.7% of transcripts deviating more than 2-fold. […]
structure (smiles),measurement,setting,value
"CN(C)N=O [DMN, Dimethylnitrosamine]",transcripts deviating more than 2-fold between controls and DMN-treated groups,2385 present transcripts,28.7%
same,Timp1 expression elevation in DMN treated rats,microarray,more than twenty
same,CD63 expression,"microarray, after DMN treatment",up-regulated
